# Reference: patent publication US20170305984A1, “STATHERIN PEPTIDES” (THE UNIVERSITY OF WESTERN ONTARIO, priority 2014, published 2017)
# Entries after “also recorded” stand apart in the source; their conditions may differ. Marks after values point to notes of the source that are not given here. Square brackets hold non-standard residues; d marks the D form. Ends that are not written are not given here. pS = N[C@@H](COP(=O)(O)O)C(=O)O
# Key:
# [1] = Enamel demineralization with chitosan nanoparticle coatings: calcium and phosphate released from enamel (Table 3); design: species or system human; details: for demineralization / acid protection (in words): coated enamel vs not coated control, pH 4.5, 12 days
# Procedure: Demineralization studies are conducted using thin sections of human enamel. Enamel minerals were analyzed using microradiography. To determine the influence of selected chitosan encapsulated salivary proteins on enamel demineralization, resin-coated enamel sections were first exposed to solutions containing chitosan encapsulated salivary proteins at a concentration of 1.0 mg/ml for 2 h at 37° C. To mimic the acidic environment of dental caries, chitosan encapsulated salivary proteins and control sections were placed into individual tubes with 3 ml of a demineralization solution containing 2.2 mM CaCl2, 2.2 mM NaH2PO4, 5 mM acetic acid, a pH 4.5. The sample was incubated at 37° C. with gentle agitation for a period of 12 days. All solutions contained 3 mM sodium azide as a bacteriostatic agent. Immediately after the demineralization period, the specimens were extensively washed with distilled water and dried with filter paper. Mineral loss was evaluated by comparing the microradiography taken before and after exposure to the acidic conditions. Enamel pieces were prepared as described and coated with chitosan nanoparticles, DR-9 encapsulated in chitosan nanoparticles, DR-9, and 0.05% NaF (gold standard group). In some groups, parotid saliva was allowed to adsorb first on enamel species to mimic the AEP (Table 3). Adsorption was allowed to proceed for a period of 2 hours at 37° C. with gentle agitation. Enamel specimens were then washed with distilled water and immersed in a demineralization solution, pH 4.5 for 12 days. This solution was used to measure the amount of calcium and phosphate released from enamel.
# [2] = Chitosan encapsulation rate, ELISA of remaining unencapsulated protein or peptide; format: physicochemical; details: encapsulation in chitosan nanoparticles
# From the text: Based on the optimized parameters for construction of chitosan micro- and nanoparticles, AEP was mixed directly with the chitosan solution. Chitosan micro- and nanoparticles were constructed, as described above, and the particles were characterized through Zeta sizing and SEM. Reverse Phase-High Performance Liquid Chromatography (RP-HPLC) and/or enzyme-linked immunosorbent assay (ELISA) was used to determine the degree of encapsulation by measuring the amount of free peptides, before and after the encapsulation procedure. Chitosan encapsulation of histatin 5, DR-9, RR-14 and bovine serum albumin was carried out to determine the chitosan encapsulation rate. ELISA assay assessed the remaining unencapsulated protein or peptide.
# [3] = Inhibition of spontaneous precipitation of supersaturated calcium phosphate solutions (Alizarin Red S, 570 nm); details: all test concentrations, compared to a group without any inhibitor; FIG. 4
# Procedure: To investigate the ability of the chitosan encapsulated AEP proteins/peptides to prevent crystal growth, microtiter plates were coated with proteins/peptides in a HEPES buffer at RT for 1 h. The wells were washed followed by the addition of a solution containing phosphate (15 mM; pH 7.4), NaCl (150 mM) and CaCl2 (50 mM). The solutions were incubated for 4 h at room temperature, allowing the formation of hydroxyapatite crystals. After this period, the solution was removed, 5% Alizarin Red S (pH 4.2), was added, followed by cerylpyridinium chloride. Crystal production was analyzed spectrophotometrically at 570 nm.
# [4] = all studied concentrations, compared to other native statherin peptides; p<0.05; cited from earlier work
# [5] = Enamel demineralization protection by constructed peptides: calcium and phosphate released from enamel (Example 1); design: species or system human; details: for Mean Ca Conc. (calcium released from human enamel) / Mean PO4 Conc. (phosphate released from human enamel): 1 mg/mL peptide 2 hours 37° C., then demineralization solution pH 4.5, 37° C., 12 days, mean ± SD; for Enamel demineralization protection / mineral loss (in words): versus distilled water control and other groups, ANOVA, Tukey
# From the text: Enamel sample preparation was done as previously described (Siqueira et. al. 2010, J Dent Res. 2010; 89: 626-630, the relevant contents of which are incorporated herein by reference). Briefly, human permanent first molars without defects were cleaned, rinsed, and sectioned. After having the roots removed, the crowns were sliced sagittally into 4 sections (each with a 300 μm thickness) using a diamond saw, followed by grinding to a thickness of 150 μm using sandpaper. Each specimen was coated with a layer of light-cured dental adhesive (3M ESPE Scotchbond™ Universal) and nail varnish, excluding an untouched 2 mm window on the natural surface enamel. Each specimen was submerged in 1 mg/mL construct peptide solution or distilled water (control group) and incubated for 2 hours at 37° C. After this period, the samples were then submerged in 1 mL of demineralization solution (0.05M acetic acid; 2.2 mM CaCl2; 2.2 mM NaH2PO4; pH 4.5) at 37° C. for 12 days. Afterward, they were rinsed thoroughly with distilled water and dried with filter paper to remove any remaining acid residue. The remaining 1 mL of acidic solution was used to assess the calcium and phosphate concentration released from enamel during the demineralization process. The calcium concentration of the solution was assessed using a quantitative colorimetric calcium determination assay (QuantiChrom™ Calcium Assay Kit, Bioassay Systems, Hayward, Calif., USA) with a UV-visible spectrophotometer to determine the optical density at a wavelength of 612 nm. The phosphate concentration was assessed using a colorimetric assay (PiColorLock™ Gold Detection System, Innova Biosciences, Cambridge, U.K.) and UV-visible spectrophotometer, to determine the optical density at a wavelength of 635 nm. All samples were analyzed in duplicate. Statistical analysis was performed with ANOVA and the Tukey Range Test.
# [6] = adsorbed for 2 hrs at 37° C., demineralization solution pH 4.5 for 12 days, n = 10
Compound,Encapsulation Efficiency [2] [%],Mean Ca Conc. (calcium released from human enamel) [5],Mean PO4 Conc. (phosphate released from human enamel) [5],Enamel demineralization protection / mineral loss (in words) [5],also measured
[F-].[Na+] [NaF],,,,,"Calcium released from enamel [1, 6]: 0.30 ± 0.13 ^b mM; Phosphate released from enamel [1, 6]: 0.17 ± 0.06 ^b mM; demineralization / acid protection (in words) [1]: better acid protection"
Bovine Serum Albumin: model protein for chitosan encapsulation,88.3,,,,
DSpSpEEKFLR (D[pS][pS]EEKFLR) [DR9],75.5,"1.455 ± 2.13^B, C mM","0.849 ± 1.80^B, C mM",,demineralization / acid protection (in words) [1]: intermediary level of demineralization protection; inhibition of calcium phosphate crystal growth [3]: statistically significant inhibition of calcium phosphate crystal growth; hydroxyapatite growth inhibition [4]: significant effect
DSpSpEEKFLRDSpSpEEKFLR (D[pS][pS]EEKFLRD[pS][pS]EEKFLR) [DR9-DR9],,0.581 ± 0.16^C mM,0.514 ± 0.18^C mM,lowest mineral loss; also recorded: amplified by DR9-DR9 when compared to single DR9 or statherin,
DSpSpEEKFLRRIGRFGYGYGPYQPVPEQPLYPQPYQPQYQQYTF (D[pS][pS]EEKFLRRIGRFGYGYGPYQPVPEQPLYPQPYQPQYQQYTF) [Statherin],,"1.117 ± 1.29^B, C mM","0.681 ± 1.11^B, C mM",,
DSpSpEEKFLRRKFHEKHHSHRGYR (D[pS][pS]EEKFLRRKFHEKHHSHRGYR) [DR9-RR14],,3.132 ± 2.46^B mM,2.282 ± 2.01^B mM,"intermediate value among the groups; also recorded: able to maintain the biological function of one of the precursor proteins, statherin",
DSpSpEEKFLRVPAGLRKFHEKHHSHRGYR (D[pS][pS]EEKFLRVPAGLRKFHEKHHSHRGYR) [DR9-VPAGL-RR14],,4.755 ± 1.35^A mM,3.917 ± 0.82^A mM,did not provide any increased demineralization protection over the control,
DSpSpEEKFLRVPLSLRKFHEKHHSHRGYR (D[pS][pS]EEKFLRVPLSLRKFHEKHHSHRGYR) [DR9-VPLSL-RR14],,4.106 ± 2.13^A mM,3.159 ± 1.85^A mM,did not provide any increased demineralization protection over the control,
Histatin 5,82.9,,,,
RKFHEKHHSHRGYR [RR-14],93.1,,,,
